As a reminder, the IC50 is the concentration that gives 50% inhibition.

The values that follow come from patent publication US9717714B2, “Spirocyclic CETP inhibitors” (Merck Sharp & Dohme Corp., priority 2012, dated 2017).

The target of one assay is CETP (Homo sapiens (Human), UniProt P11597). Briefly: Scintillation Proximity Assay (SPA) for CETP activity. To be noted: 15 nM CETP. The class given is biochemical. The method, then: Protocol: Scintillation Proximity Assay (SPA) for CETP Activity
First, low density lipoprotein (LDL) (Meridian) was biotinylated by incubating LDL with biotin for 1 hour on ice, after which it was dialyzed to remove free biotin. Then compounds at varying concentrations were incubated with 15 nM CETP (reagent production group, In Vitro Pharmacology, MRL Rahway) and 50 ug/ml of the biotinylated LDL in 50 mM HEPES, 150 mM NaCl, pH 7.4, for 1 hour at 37° C. The reaction was started by adding ^3H-cholesterol ester high density lipoprotein (HDL) (American Radiochemicals Corp) at a concentration of ˜0.6 nM. The reaction proceeded for 2 hours at 37° C., after which time it was quenched by the addition of 12% acetic acid. PVT streptavadin-coated scintillation proximity beads, which had been brought to room temperature, were then added at a concentration of 4 mg/ml. The assay was then mixed and counted after one half hour in a Microbeta plate reader.

Assay [1] concerns the target endogenous CETP from serum (Homo sapiens (Human), UniProt P11597). The assay is described as follows: RTA assay in 95% human serum (CETP-catalyzed CE and TG transfer, endogenous CETP). The format is biochemical. To be noted: generally RTA assay in 95% human serum; read-out: IC50. The text has this:
In Vitro Radioactive Assays of CETP-Catalyzed CE and TG Transfer (RTA Assay)
Reagents and sources are: [3H] cholesteryl oleate (GE #TRK.886), [3H] Triolein (Perkin-Elmer NET-431), Butylated hydroxyl toluene (Aldrich, #D4740-4), DOPC (Sigma, #P6354), Sodium Bromide (Fisher scientific #S255-500), PEG 8000 (Fisher, #BP233-1), and human HDL (Intracel Corp #RP-036).
Both assays measure the transfer of [3H] cholesteryl oleate or [3H] triolein from exogenous LDL to HDL.
Radiolabeled donor particles are generated by first combining 100 μl of 200 μM butylated hydroxyl toluene in CHCl3, 216 μL of 21.57 mM DOPC in EtOH, and either 500 μCi [3H]-triolein (Perkin Elmer #NET-431) or 500 μCi [3H]-cholesteryl oleate (GE #TRK886) in a glass tube. Reagents are mixed, dried under nitrogen, and then resuspended in 2 mL of 50 mM Tris, 27 μM EDTA at pH 7.4. After a brief vortex, the solution is sonicated until clear and mixed with 20 mL of fresh human serum. The mixture is incubated overnight at 37° C. The [3H] labeled LDL substrate is separated at 1.063 g/ml density by sequential ultracentrifugal flotation in NaBr according to the method of Havel, Eder, et al., 1955, and Chapman, Goldstein, et al., 1981. Once isolated the particles are dialyzed 3× in CETP buffer (50 mM Tris, pH 7.4, 100 mM NaCl, 1 mM EDTA). Human HDL is purchased from Intracel and used as the acceptor particles.
Transfer assays are performed in a 96-well v-bottom polypropylene plate. For the RTA using recombinant CETP (2% RTA), an assay cocktail is prepared with the final concentrations 128 μg/mL HDL, 20 nM rCETP, 2% human serum, and 1×CETP buffer. 1 μL of each test compound diluted in DMSO is added to 47 μL of assay cocktail per well and incubated at 37° C. for 1 hour. To initiate the transfer reaction, 2 μL radiolabeled LDL is added. After an additional 60 min of incubation at 37° C., the transfer action is terminated by precipitation of LDL with an equal volume of 20% W/V PEG 8000. The plates are centrifuged at 2000 rpm for 30 minutes at 4° C. A 40 μL aliquot of the HDL-containing supernatant is transferred to a Packard Optiplate™ with 200 μL of MicroScint™ 20. After mixing, plates are counted by liquid scintillation. Counts present in the supernatant for blanks (wells containing only HDL acceptor, CETP buffer and DMSO) are subtracted from those containing test compounds and used to correct for non-specific transfer.
For the transfer assay using endogenous CETP from serum (95% RTA), the same procedure is used except that human serum is added such that a final concentration of serum of 95% of the total assay volume is achieved, yielding a concentration of approximately 15 nM endogenous CETP in the assay. This is then combined with HDL and CETP buffer and the reaction proceeds as above and is terminated as described.
Comparison of the counts of samples with inhibitors to an uninhibited (DMSO only) positive control yield a percent inhibition. A plot of percent inhibition vs. log of inhibitor concentration, fit to a Sigmoidal 4 parameter equation is used to calculate IC50.
Starting materials are commercially available or are made using known procedures or as shown below. The examples may be synthesized according to the general schemes provided below and through the synthetic intermediates that are described. […] When compounds of Formula I or Formula II are mentioned herein, such compounds include compounds defined generically by Formula I or II and also the specific examples disclosed herein.

For assay [2] the following is noted: patients on baseline statin therapy, compared with just a statin; cited from earlier work.

Structures are written as SMILES.

endogenous CETP from serum, sequence (P11597 18-493 limits assumed): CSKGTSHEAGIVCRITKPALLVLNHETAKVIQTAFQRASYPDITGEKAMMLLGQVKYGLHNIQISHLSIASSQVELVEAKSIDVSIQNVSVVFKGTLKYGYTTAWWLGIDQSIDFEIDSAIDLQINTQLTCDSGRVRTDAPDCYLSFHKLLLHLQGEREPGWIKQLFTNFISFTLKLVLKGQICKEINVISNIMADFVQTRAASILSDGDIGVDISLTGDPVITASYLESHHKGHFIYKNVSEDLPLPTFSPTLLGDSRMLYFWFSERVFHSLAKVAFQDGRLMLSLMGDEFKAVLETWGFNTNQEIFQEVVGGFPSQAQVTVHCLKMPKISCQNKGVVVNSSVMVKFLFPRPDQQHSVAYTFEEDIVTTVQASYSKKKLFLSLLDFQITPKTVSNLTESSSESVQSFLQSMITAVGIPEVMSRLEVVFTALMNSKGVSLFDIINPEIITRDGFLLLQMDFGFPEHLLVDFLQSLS
CETP, sequence (P11597 18-493): as the sequence (P11597 18-493 limits assumed) above

Turning to `COc1ccc(-c2ccc(C(=O)O)cc2C)cc1-c1cnc(N(C)C)nc1CN1C(=O)O[C@@H](c2cc(C(F)(F)F)cc(C(F)(F)F)c2)C12CC2` [Example 8, 3′-[4-({(7S)-7-[3,5-bis(trifluoromethyl)phenyl]-5-oxo-6-oxa-4-azaspiro[2.4]hept-4-yl}methyl)-2-(dimethylamino)pyrimidin-5-yl]-4′-methoxy-2-methylbiphenyl-4-carboxylic acid], the IC50 against CETP was 6.3 µM.

`COC(=O)c1ccc(-c2ccc(OC)c(-c3cnc(SC)nc3CN3C(=O)O[C@H](c4cc(C(F)(F)F)cc(C(F)(F)F)c4)C34CC4)c2)c(C)c1` [Example 18, methyl 3′-[4-({(7R)-7-[3,5-bis(trifluoromethyl)phenyl]-5-oxo-6-oxa-4-azaspiro[2.4]hept-4-yl}methyl)-2-(methylsulfanyl)pyrimidin-5-yl]-4′-methoxy-2-methylbiphenyl-4-carboxylate]: in assay [1], the IC50 came out at 0.596 µM.

Take `COc1cc(F)c(C(C)C)cc1-c1ccc(C(F)(F)F)cc1CN1C(=O)O[C@H](c2cc(C(F)(F)F)cc(C(F)(F)F)c2)[C@@H]1C` [anacetrapib]: in assay [2], the “decrease of LDL-C” value is recorded as 40% and the “increase of HDL-C” value is recorded as 138%.
